Here are results for 12 compounds from patent US10519152B2, “Compounds and their use in treating cancer” (AstraZeneca AB, priority 2017, dated 2019).

The assay has as its target T1, Estrogen Receptor (ERα) in MCF-7 human ductal carcinoma breast cell line (Homo sapiens, UniProt P03372).
T1 construct: endogenous in cells; host or cells: MCF-7
T1 sequence (P03372 1-595): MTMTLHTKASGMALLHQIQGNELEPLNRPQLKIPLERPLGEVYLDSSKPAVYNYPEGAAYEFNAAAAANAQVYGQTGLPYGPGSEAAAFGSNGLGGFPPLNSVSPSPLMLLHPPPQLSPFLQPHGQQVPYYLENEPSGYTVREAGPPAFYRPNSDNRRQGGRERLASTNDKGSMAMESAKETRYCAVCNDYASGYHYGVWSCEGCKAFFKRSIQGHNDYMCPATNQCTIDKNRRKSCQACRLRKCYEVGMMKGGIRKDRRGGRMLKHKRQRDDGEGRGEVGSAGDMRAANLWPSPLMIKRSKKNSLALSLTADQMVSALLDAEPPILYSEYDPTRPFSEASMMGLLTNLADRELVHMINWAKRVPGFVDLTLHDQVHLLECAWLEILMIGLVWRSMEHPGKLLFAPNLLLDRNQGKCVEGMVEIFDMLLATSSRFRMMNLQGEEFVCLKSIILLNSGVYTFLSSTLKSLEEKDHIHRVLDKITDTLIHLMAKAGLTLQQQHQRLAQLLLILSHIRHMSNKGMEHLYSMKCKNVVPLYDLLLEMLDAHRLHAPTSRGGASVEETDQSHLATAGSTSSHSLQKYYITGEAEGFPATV
The assay can be described thus: MCF-7 ER degradation assay (cell based immuno-fluorescence). Conditions: MCF-7 cells; for ER degradation ≥ 90% at 0.3 μM: ER degradation by fulvestrant at 0.3 μM is defined as 100%; for DC50: 18-22 hours incubation, 50% reduction of ERα expression, single experiment or average of two or more, read-out: MCF-7 ER degradation IC50. The method in brief: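 MCF-7 human ductal carcinoma breast cells were seeded at 3.75×10^4 cells per mL (40 μL per well) in 384 well plates with phenol red free DMEM containing 2 mM L-Glutamine and 5% (v/v) Charcoal/Dextran treated foetal calf serum. After overnight culture, compounds were acoustically dispensed, incubated 18-22 hours, then cells were formaldehyde-fixed and immunostained for ERα.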

Take `Cc1ncsc1-c1ccc(CNC(=O)[C@@H]2C[C@@H](O)CN2C(=O)[C@@H](NC(=O)COCCC(F)(F)CCOc2cc(F)c([C@@H]3c4[nH]c5ccccc5c4C[C@@H](C)N3CC(C)(C)F)c(F)c2)C(C)(C)C)cc1` [Example 130, (2S,4R)-1-((S)-2-(2-((5-(3,5-Difluoro-4-((1R,3R)-2-(2-fluoro-2-methylpropyl)-3-methyl-2,3,4,9-tetrahydro-1H-pyrido[3,4-b]indol-1-yl)phenoxy)-3,3-difluoropentyl)oxy)acetamido)-3,3-dimethylbutanoyl)-4-hydroxy-N-(4-(4-methylthiazol-5-yl)benzyl)pyrrolidine-2-carboxamide]: the “ER degradation ≥ 90% at 0.3 μM” value is given as “•” and the DC50 was found to be 0.5 nM.
Taken in the same sequence, the figures for `Cc1ncsc1-c1ccc(CNC(=O)[C@@H]2C[C@@H](O)CN2C(=O)[C@@H](NC(=O)CCCCCCCCOc2cc(F)c([C@@H]3c4[nH]c5ccccc5c4C[C@@H](C)N3CC(C)(C)F)c(F)c2)C(C)(C)C)cc1` [Example 15, (2S,4R)-1-((S)-2-(9-(3,5-Difluoro-4-((1R,3R)-2-(2-fluoro-2-methylpropyl)-3-methyl-2,3,4,9-tetrahydro-1H-pyrido[3,4-b]indol-1-yl)phenoxy)nonanamido)-3,3-dimethylbutanoyl)-4-hydroxy-N-(4-(4-methylthiazol-5-yl)benzyl)pyrrolidine-2-carboxamide] were “•” and 3.9 nM.
For the compound `Cc1ncsc1-c1ccc(CNC(=O)C2CC(O)CN2C(=O)C(NC(=O)COCCOc2cc(F)c(C3c4[nH]c5ccccc5c4CC(C)N3CC(C)(C)F)c(F)c2)C(C)(C)C)cc1` [Example 40, (2S,4R)-1-((S)-2-(2-(2-(3,5-Difluoro-4-((1R,3R)-2-(2-fluoro-2-methylpropyl)-3-methyl-2,3,49-tetrahydro-1H-pyrido[3,4-b]indol-1-yl)phenoxy)ethoxy)acetamido)-3,3-dimethylbutanoyl)-4-hydroxy-N-(4-(4-methylthiazol-5-yl)benzyl)pyrrolidine-2-carboxamide], the “ER degradation ≥ 90% at 0.3 μM” value is “•” and the DC50 was 0.6 nM.
The matching figures for `Cc1ncsc1-c1ccc([C@H](C)NC(=O)[C@@H]2C[C@@H](O)CN2C(=O)[C@@H](NC(=O)C(F)(F)OCCCOCCCOc2cc(F)c([C@@H]3c4[nH]c5ccccc5c4C[C@@H](C)N3CC(C)(C)F)c(F)c2)C(C)(C)C)cc1` [Example 120, (2S,4R)-1-((S)-2-(2-(3-(3-(3,5-Difluoro-4-((1R,3R)-2-(2-fluoro-2-methylpropyl)-3-methyl-2,3,4,9-tetrahydro-1H-pyrido[3,4-b]indol-1-yl)phenoxy)propoxy)propoxy)-2,2-difluoroacetamido)-3,3-dimethylbutanoyl)-4-hydroxy-N—((S)-1-(4-(4-methylthiazol-5-yl)phenyl)ethyl)pyrrolidine-2-carboxamide]: “••” and 1.6 nM.
Taken in the same sequence, the figures for `Cc1ncsc1-c1ccc(CNC(=O)[C@@H]2C[C@@H](O)CN2C(=O)[C@@H](NC(=O)CNCCCCCCCCOc2cc(F)c([C@@H]3c4[nH]c5ccccc5c4C[C@@H](C)N3CC(C)(C)F)c(F)c2)C(C)(C)C)cc1` [Example 147, (2S,4R)-1-((S)-2-(2-((8-(3,5-Difluoro-4-((1R,3R)-2-(2-fluoro-2-methylpropyl)-3-methyl-2,3,4,9-tetrahydro-1H-pyrido[3,4-b]indol-1-yl)phenoxy)octyl)amino)acetamido)-3,3-dimethylbutanoyl)-4-hydroxy-N-(4-(4-methylthiazol-5-yl)benzyl)pyrrolidine-2-carboxamide] were “•” and 5.8 nM.
`Cc1ncsc1-c1ccc(CNC(=O)[C@@H]2C[C@@H](O)CN2C(=O)[C@@H](NC(=O)COCCCCC(=O)N(C)CCOc2cc(F)c([C@@H]3c4[nH]c5ccccc5c4C[C@@H](C)N3CC(C)(C)F)c(F)c2)C(C)(C)C)cc1` [Example 143, (2S,4R)-1-((S)-2-(2-((5-((2-(3,5-Difluoro-4-((1R,3R)-2-(2-fluoro-2-methylpropyl)-3-methyl-2,3,4,9-tetrahydro-1H-pyrido[3,4-b]indol-1-yl)phenoxy)ethyl)(methyl)amino)-5-oxopentyl)oxy)acetamido)-3,3-dimethylbutanoyl)-4-hydroxy-N-(4-(4-methylthiazol-5-yl)benzyl)pyrrolidine-2-carboxamide]: the “ER degradation ≥ 90% at 0.3 μM” value was “••” and the DC50 worked out at 0.2 nM.
For `Cc1ncsc1-c1ccc(CNC(=O)[C@@H]2C[C@@H](O)CN2C(=O)[C@@H](NC(=O)COc2cccc(COc3cc(F)c([C@@H]4c5[nH]c6ccccc6c5C[C@@H](C)N4CC(C)(C)F)c(F)c3)c2)C(C)(C)C)cc1` [Example 20, (2S,4R)-1-((S)-2-(2-(3-((3,5-difluoro-4-((1R,3R)-2-(2-fluoro-2-methylpropyl)-3-methyl-2,3,4,9-tetrahydro-1H-pyrido[3,4-b]indol-1-yl)phenoxy)methyl)phenoxy)acetamido)-3,3-dimethylbutanoyl)-4-hydroxy-N-(4-(4-methylthiazol-5-yl)benzyl)pyrrolidine-2-carboxamide], the “ER degradation ≥ 90% at 0.3 μM” value is on record as “•” and the DC50 was 1.7 nM.
Taken in the same sequence, the figures for `Cc1ncsc1-c1ccc([C@H](C)NC(=O)[C@@H]2C[C@@H](O)CN2C(=O)[C@@H](NC(=O)COCCOCCCCOc2cc(F)c([C@@H]3c4[nH]c5ccccc5c4C[C@@H](C)N3CC(C)(C)F)c(F)c2)C(C)(C)C)cc1` [Example 153, (2S,4R)-1-((S)-2-(2-(2-(4-(3,5-Difluoro-4-((1R,3R)-2-(2-fluoro-2-methylpropyl)-3-methyl-2,3,4,9-tetrahydro-1H-pyrido[3,4-b]indol-1-yl)phenoxy)butoxy)ethoxy)acetamido)-3,3-dimethylbutanoyl)-4-hydroxy-N—((S)-1-(4-(4-methylthiazol-5-yl)phenyl)ethyl)pyrrolidine-2-carboxamide] were “••” and 0.4 nM.
In the case of `Cc1ncsc1-c1ccc(CNC(=O)[C@@H]2C[C@@H](O)CN2C(=O)[C@@H](NC(=O)C(F)(F)OCCOCCCCOc2cc(F)c([C@@H]3c4[nH]c5ccccc5c4C[C@@H](C)N3CC(C)(C)F)c(F)c2)C(C)(C)C)cc1` [Example 121, (2S,4R)-1-((S)-2-(2-(2-(4-(3,5-Difluoro-4-((1R,3R)-2-(2-fluoro-2-methylpropyl)-3-methyl-2,3,4,9-tetrahydro-1H-pyrido[3,4-b]indol-1-yl)phenoxy)butoxy)ethoxy)-2,2-difluoroacetamido)-3,3-dimethylbutanoyl)-4-hydroxy-N-(4-(4-methylthiazol-5-yl)benzyl)pyrrolidine-2-carboxamide], the “ER degradation ≥ 90% at 0.3 μM” value is listed as “•” and the DC50 is 2.6 nM.
The matching figures for `Cc1ncsc1-c1ccc([C@@H](CN(C)C)NC(=O)[C@@H]2C[C@@H](O)CN2C(=O)[C@@H](NC(=O)COCCOCCOCCOc2cc(F)c([C@@H]3c4[nH]c5ccccc5c4C[C@@H](C)N3CC(C)(C)F)c(F)c2)C(C)(C)C)cc1` [Example 107, (2S,4R)-1-[(2S)-2-[[2-[2-[2-[2-[3,5-Difluoro-4-[(1R,3R)-2-(2-fluoro-2-methyl-propyl)-3-methyl-1,3,4,9-tetrahydropyrido[3,4-b]indol-1-yl]phenoxy]ethoxy]ethoxy]ethoxy]acetyl]amino]-3,3-dimethyl-butanoyl]-N-[(1S)-2-(dimethylamino)-1-[4-(4-methylthiazol-5-yl)phenyl]ethyl]-4-hydroxy-pyrrolidine-2-carboxamide]: “••” and 1 nM.
Taken in the same sequence, the figures for `Cc1ncsc1-c1ccc(CNC(=O)[C@@H]2C[C@@H](OC(=O)[C@@H]3CCCN3)CN2C(=O)[C@@H](NC(=O)CCCCCCCCCCOc2cc(F)c([C@@H]3c4[nH]c5ccccc5c4C[C@@H](C)N3CC(C)(C)F)c(F)c2)C(C)(C)C)cc1` [Example 33, (3R,5S)-1-((S)-2-(11-(3,5-Difluoro-4-((1R,3R)-2-(2-fluoro-2-methylpropyl)-3-methyl-2,3,4,9-tetrahydro-1H-pyrido[3,4-b]indol-1-yl)phenoxy)undecanamido)-3,3-dimethylbutanoyl)-5-((4-(4-methylthiazol-5-yl)benzyl)carbamoyl)pyrrolidin-3-yl L-prolinate] were “••” and 29 nM.
As to `Cc1ncsc1-c1ccc(CNC(=O)[C@@H]2C[C@@H](O)CN2C(=O)[C@@H](NC(=O)COCCOCCC(F)(F)CCOc2cc(F)c([C@@H]3c4[nH]c5ccccc5c4C[C@@H](C)N3CC(C)(C)F)c(F)c2)C(C)(C)C)cc1` [Example 127, (2S,4R)-1-((S)-2-(2-(2-((5-(3,5-Difluoro-4-((R,3R)-2-(2-fluoro-2-methylpropyl)-3-methyl-2,3,4,9-tetrahydro-1H-pyrido[3,4-b]indol-1-yl)phenoxy)-3,3-difluoropentyl)oxy)ethoxy)acetamido)-3,3-dimethylbutanoyl)-4-hydroxy-N-(4-(4-methylthiazol-5-yl)benzyl)pyrrolidine-2-carboxamide], the “ER degradation ≥ 90% at 0.3 μM” value is “••” and the DC50 turned out to be 0.8 nM.
